From patent US8053574B2, “Organic compounds” (Novartis AG, priority 2007, dated 2011)

molecular target: PI3K γ (Homo sapiens, UniProt P48736); experiment: PI3 kinase phosphorylation assay (Biological Method 1), Ki γ; assay type: biochemical; conditions: Table 1, compounds of formula X
Description: The compounds of the invention were synthesized according to the examples provided above. PI3K inhibitory (IC50) values of the compounds were determined according to Biological Method 1.
Assay 1: Homogenous Solution Phase Assay
Compounds to be tested are dissolved in DMSO and directly distributed into 384-well flashplates at 1.25 μL per well. To start the reaction, 20 μL of 6 nM PI3 kinase are added into each well followed by 20 μL of 400 nM ATP containing a trace of radiolabeled ATP and 900 nM 1-alpha-phosphatidylinositol (PI). The plates are briefly centrifuged to remove any air gap. The reaction is performed for 15 minutes and then stopped by the addition of 20 μL of 100 mM EDTA. The stopped reaction is incubated overnight at RT to allow the lipid substrate to bind by hydrophobic interaction to the surface of the flashplate. The liquid in the wells is then washed away, and the labeled substrate is detected with scintillation counting.
Assay 2: One Step Solid Phase Assay
This method is similar to Assay 1 except that the lipid substrate (1-alpha-phosphatidylinositol (PI)) is first dissolved in a coating buffer and incubated on flashplate at room temperature overnight to allow the lipid substrate to bind by hydrophobic interaction to the surface of the flashplate. Unbound substrate is then washed away. On the day of assay, 20 μL of 6 nM PI3 kinase are added into each well followed by 20 μL of 400 nM ATP containing trace of radiolabeled ATP. Compounds are added together with enzyme and ATP to the lipid-coated plates. The plates are briefly centrifuged to remove any air gap. The reaction is performed for two to three hours. The reaction is stopped by addition of 20 μL of 100 mM EDTA or by immediate plate washing. Phosphorylated lipid substrate is detected by scintillation counting.
Assay 3: ATP Depletion Assay
Compounds to be tested are dissolved in DMSO and directly distributed into a black 384-well plate at 1.25 μL per well. To start the reaction, 25 μL of 10 nM PI3 kinase and 5 μg/mL 1-alpha-phosphatidylinositol (PI) are added into each well followed by 25 μL of 2 μM ATP. The reaction is performed until approx 50% of the ATP is depleted, and then stopped by the addition of 25 μL of KinaseGlo solution. The stopped reaction is incubated for 5 minutes and the remaining ATP is then detected via luminescence.

Sequence of PI3K γ (P48736 whole entry): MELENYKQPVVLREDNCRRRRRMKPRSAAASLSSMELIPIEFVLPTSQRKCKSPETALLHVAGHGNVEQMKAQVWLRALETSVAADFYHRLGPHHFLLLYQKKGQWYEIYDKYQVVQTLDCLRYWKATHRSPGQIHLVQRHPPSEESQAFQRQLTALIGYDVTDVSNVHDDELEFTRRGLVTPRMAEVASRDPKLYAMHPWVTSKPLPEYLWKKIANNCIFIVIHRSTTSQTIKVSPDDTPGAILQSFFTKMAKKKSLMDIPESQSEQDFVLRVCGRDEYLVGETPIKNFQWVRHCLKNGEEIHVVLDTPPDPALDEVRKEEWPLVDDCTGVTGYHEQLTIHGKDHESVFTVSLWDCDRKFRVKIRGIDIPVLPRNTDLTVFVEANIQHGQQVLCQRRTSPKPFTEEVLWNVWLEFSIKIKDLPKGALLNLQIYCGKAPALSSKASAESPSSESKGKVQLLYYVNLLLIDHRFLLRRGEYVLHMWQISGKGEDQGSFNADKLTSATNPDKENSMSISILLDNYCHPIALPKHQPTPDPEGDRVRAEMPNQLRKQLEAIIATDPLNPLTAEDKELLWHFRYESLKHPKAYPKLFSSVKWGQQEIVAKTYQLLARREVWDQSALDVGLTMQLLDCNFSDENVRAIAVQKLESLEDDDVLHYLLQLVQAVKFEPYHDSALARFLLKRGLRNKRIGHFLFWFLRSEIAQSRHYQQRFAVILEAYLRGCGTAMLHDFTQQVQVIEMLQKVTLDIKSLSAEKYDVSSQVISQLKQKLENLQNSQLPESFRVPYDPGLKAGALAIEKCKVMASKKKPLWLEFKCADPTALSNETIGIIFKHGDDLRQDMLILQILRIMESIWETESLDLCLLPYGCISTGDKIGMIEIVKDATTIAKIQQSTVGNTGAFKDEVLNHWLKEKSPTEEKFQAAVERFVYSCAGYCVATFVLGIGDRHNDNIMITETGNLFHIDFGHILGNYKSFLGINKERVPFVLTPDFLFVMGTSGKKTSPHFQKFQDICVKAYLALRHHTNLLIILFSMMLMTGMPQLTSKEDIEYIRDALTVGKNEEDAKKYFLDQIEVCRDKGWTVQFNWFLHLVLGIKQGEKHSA

**Q.** CC(C)n1nnc(CCNC(=O)Nc2cn3cc(-c4ccncc4)ccc3n2)n1 [drawing 17] was tested. Which Ki did it give?
**A.** Its Ki is 0.135 µM.

**Q.** With CC(C)n1nnc(CCNC(=O)Nc2cn3cc(-c4cncc(C#N)c4)ccc3n2)n1 [drawing 19] as the compound, how does the Ki read?
**A.** Its Ki is 0.04 µM.

**Q.** CC(C)n1nnc(CCNC(=O)Nc2cn3cc(-c4cncnc4)ccc3n2)n1 [drawing 21] was tested. Which Ki did it give?
**A.** Its Ki is 0.165 µM.

**Q.** Which Ki does the source give for CCOc1cncc(-c2ccc3nc(NC(=O)NCCc4nnn(C(C)C)n4)cn3c2)c1 [drawing 25] here?
**A.** The Ki was 0.048 µM.

**Q.** With CC(C)n1nnc(CCNC(=O)Nc2cn3cc(-c4cncc(C(F)(F)F)c4)ccc3n2)n1 [drawing 27] as the compound, how does the Ki read?
**A.** The Ki was 0.018 µM.

**Q.** Which Ki does the source give for CCn1nnc(CCNC(=O)Nc2cn3cc(-c4ccc5c(c4)OCO5)ccc3n2)n1 [drawing 29] here?
**A.** The Ki was 0.303 µM.

**Q.** Which Ki does the source give for CCn1nnc(CCNC(=O)Nc2cn3cc(-c4cccc(C(F)(F)F)c4)ccc3n2)n1 [drawing 31] here?
**A.** The Ki was 0.24 µM.

**Q.** How did the Ki turn out when CC(C)n1nnc(CCNC(=O)Nc2cn3cc(-c4cncc(Cl)c4)ccc3n2)n1 [drawing 37] was run?
**A.** Its Ki is 0.05 µM.

**Q.** With CC(C)n1nnc(CCNC(=O)Nc2cn3cc(-c4cncc(OC5CCOCC5)c4)ccc3n2)n1 [drawing 39] as the compound, how does the Ki read?
**A.** The Ki was 0.147 µM.

**Q.** For CC(C)(C)NC(=O)CCNC(=O)Nc1cn2cc(-c3cncc(-c4ccccc4)c3)ccc2n1 [drawing 43], which Ki is on record?
**A.** The Ki was 0.207 µM.

**Q.** How did the Ki turn out when CC(C)n1nnc(CCNC(=O)Nc2cn3cc(-c4cncc(-c5ccccc5)c4)ccc3n2)n1 [drawing 45] was run?
**A.** The Ki was 0.24 µM.

**Q.** For COCCOCCOc1cncc(-c2ccc3nc(NC(=O)NCCc4nnn(C(C)C)n4)cn3c2)c1 [drawing 47], which Ki is on record?
**A.** Its Ki is 0.268 µM.

**Q.** Which Ki does the source give for CC(C)(C)NC(=O)CCNC(=O)Nc1cn2cc(-c3cncc(OC4CCOCC4)c3)ccc2n1 [drawing 49] here?
**A.** Its Ki is 0.397 µM.

**Q.** For COc1ccc(-c2ccc3nc(NC(=O)NCCc4nnn(C(C)C)n4)cn3c2)cn1 [drawing 51], which Ki is on record?
**A.** The Ki was 0.301 µM.

**Q.** COc1ccc(-c2ccc3nc(NC(=O)NCCc4nnn(CCF)n4)cn3c2)cn1 [drawing 53] was tested. Which Ki did it give?
**A.** Its Ki is 0.075 µM.

**Q.** Which Ki does the source give for CCc1cncc(-c2ccc3nc(NC(=O)NCCc4nnn(C(C)C)n4)cn3c2)c1 [drawing 57] here?
**A.** Its Ki is 0.025 µM.

**Q.** Which Ki does the source give for CCn1cnc(CCNC(=O)Nc2cn3cc(-c4cncc(C(F)(F)F)c4)ccc3n2)c1 [drawing 59] here?
**A.** Its Ki is 0.028 µM.

**Q.** Which Ki does the source give for Cc1ccc(-c2ccc3nc(NC(=O)NCCc4nnn(C(C)C)n4)cn3c2)cn1 [drawing 61] here?
**A.** Its Ki is 0.113 µM.

**Q.** With CCc1nnn(CCNC(=O)Nc2cn3cc(-c4cncc(C(F)(F)F)c4)ccc3n2)n1 [drawing 63] as the compound, how does the Ki read?
**A.** Its Ki is 0.026 µM.

**Q.** Which Ki does the source give for CCc1nnn(CCNC(=O)Nc2cn3cc(-c4cncc(C#N)c4)ccc3n2)n1 [drawing 65] here?
**A.** The Ki was 0.115 µM.

**Q.** O=C(NCCn1nnc(C2CC2)n1)Nc1cn2cc(-c3cncc(C(F)(F)F)c3)ccc2n1 [drawing 67] was tested. Which Ki did it give?
**A.** The Ki was 0.028 µM.

**Q.** CC(C)n1nnc(CCNC(=O)Nc2cn3cc(-c4cccc(F)c4)ccc3n2)n1 [drawing 69] was tested. Which Ki did it give?
**A.** Its Ki is 0.836 µM.

**Q.** COc1cccc(-c2ccc3nc(NC(=O)NCCc4nnn(C(C)C)n4)cn3c2)c1 [drawing 71] was tested. Which Ki did it give?
**A.** The Ki was 1.03 µM.

**Q.** How did the Ki turn out when CCn1nnc(CCNC(=O)Nc2cn3cc(-c4cnc5ccccc5c4)ccc3n2)n1 [drawing 73] was run?
**A.** The Ki was 0.57 µM.

**Q.** How did the Ki turn out when CC(C)n1nnc(CCNC(=O)Nc2cn3cc(-c4ccccc4)ccc3n2)n1 [drawing 75] was run?
**A.** The Ki was 0.423 µM.

**Q.** How did the Ki turn out when CCn1nnc(CCNC(=O)Nc2cn3cc(-c4cncc(C(F)(F)F)c4)ccc3n2)n1 [drawing 81] was run?
**A.** The Ki was 0.007 µM.

**Q.** For O=C(NCCc1nnn(CCF)n1)Nc1cn2cc(-c3cncc(C(F)(F)F)c3)ccc2n1 [drawing 83], which Ki is on record?
**A.** Its Ki is 0.002 µM.

**Q.** With Cn1nnc(CCNC(=O)Nc2cn3cc(-c4cncc(C(F)(F)F)c4)ccc3n2)n1 [drawing 89] as the compound, how does the Ki read?
**A.** Its Ki is 0.012 µM.

**Q.** Which Ki does the source give for Cc1ccccc1-c1cncc(-c2ccc3nc(NC(=O)NCCc4nnn(C(C)C)n4)cn3c2)c1 [drawing 91] here?
**A.** Its Ki is 1.12 µM.

**Q.** Which Ki does the source give for CCn1nnc(CCNC(=O)Nc2cn3cc(-c4cnn(C)c4)ccc3n2)n1 [drawing 93] here?
**A.** The Ki was 0.456 µM.

**Q.** With CCn1nnc(CCNC(=O)Nc2cn3cc(-c4cncc5ccccc45)ccc3n2)n1 [drawing 97] as the compound, how does the Ki read?
**A.** The Ki was 0.158 µM.

**Q.** How did the Ki turn out when CC(=O)c1cncc(-c2ccc3nc(NC(=O)NCCc4nnn(C(C)C)n4)cn3c2)c1 [drawing 99] was run?
**A.** The Ki was 0.008 µM.

**Q.** How did the Ki turn out when CCn1nnc(CCNC(=O)Nc2cn3cc(Br)ccc3n2)n1 [drawing 103] was run?
**A.** Its Ki is 0.911 µM.

same assay, conditions: Table 4

**Q.** How did the Ki turn out when CCn1nnc(CCNC(=O)Nc2nc3ccc(-c4cccnc4)cn3n2)n1 [Example 3-8, 1-[2-(2-Ethyl-2H-tetrazol-5-yl)-ethyl]-3-(6-pyridin-3-yl-[1,2,4]triazolo[1,5-a]pyridin-2-yl)-urea] was run?
**A.** Its Ki is 0.099 µM.

**Q.** How did the Ki turn out when CCn1nnc(CCNC(=O)Nc2nc3ccc(-c4cncc(C#N)c4)cn3n2)n1 [Example 3-9, 1-[6-(5-Cyano-pyridin-3-yl)-[1,2,4]triazolo[1,5-a]pyridin-2-yl]-3-[2-(2-ethyl-2H-tetrazol-5-yl)-ethyl]-urea] was run?
**A.** Its Ki is 0.418 µM.

**Q.** CCn1nnc(CCNC(=O)Nc2cn3cc(-c4cncc(C(F)(F)F)c4)cnc3n2)n1 [Example 3-10, 1-[2-(2-Ethyl-2H-tetrazol-5-yl)-ethyl]-3-[6-(5-trifluoromethyl-pyridin-3-yl)-imidazo[1,2-a]pyrimnidin-2-yl]-urea] was tested. Which Ki did it give?
**A.** The Ki was 0.884 µM.

**Q.** How did the Ki turn out when CCn1nnc(CCNC(=O)Nc2nc3cc(-c4cccnc4)ccn3n2)n1 [Example 3-15, 1-[2-(2-Ethyl-2H-tetrazol-5-yl)-ethyl]-3-(7-pyridin-3-yl-[1,2,4]triazolo[1,5-a]pyridin-2-yl)-urea] was run?
**A.** Its Ki is 0.502 µM.

**Q.** For CCn1nnc(CCNC(=O)Nc2nc3cc(-c4cncc(C(F)(F)F)c4)ccn3n2)n1 [Example 3-16, 1-[2-(2-Ethyl-2H-tetrazol-5-yl)-ethyl]-3-[7-(5-trifluoromethyl-pyridin-3-yl)-[1,2,4]triazolo[1,5-a]pyridin-2-yl]-urea], which Ki is on record?
**A.** Its Ki is 0.64 µM.

**Q.** Which Ki does the source give for CCn1nnc(CCNC(=O)Nc2cn3nc(-c4cncc(F)c4)ccc3n2)n1 [Example 3-17, 1-[2-(2-Ethyl-2H-tetrazol-5-yl)-ethyl]-3-[6-(5-fluoro-pyridin-3-yl)-imidazo[1,2-b]pyridazin-2-yl]-urea] here?
**A.** The Ki was 0.107 µM.

**Q.** For CCn1nnc(CCNC(=O)Nc2cn3nc(-c4cnccc4C)ccc3n2)n1 [Example 3-18, 1-[2-(2-Ethyl-2H-tetrazol-5-yl)-ethyl]-3-[6-(4-methyl-pyridin-3-yl)-imidazo[1,2-b]pyridazin-2-yl]-urea], which Ki is on record?
**A.** Its Ki is 0.248 µM.
